Tests used:
[1] = AUC (0 to 24 hrs) in SMA adult C/C allele mouse model at 1 mg/kg, po dosed once daily for 10 days; assay type: ADME, organism-based; design: dose 1 mg/kg, time < 24 hr, route oral; conditions: in vivo
[2] = Half life in rat at 5.5 mg/kg, po administered as single dose; assay type: ADME, organism-based; conditions: in vivo
[3] = test system: Mus musculus; assay: In-vivo stabilization of SMN2 mRNA in SMA neonatal delta7 mouse model assessed as increase in SMN protein levels in quadriceps at 0.1 mg/kg, ip dosed once daily starting from postnatal day 3 to postnatal day 9 relative to control; assay type: functional
[4] = Stabilization of human […] mRNA splicing expressed in human SMA-derived fibroblasts at 121 to 605 nM by RT-qPCR analysis; assay type: ADME; conditions: 0.605 µM
[5] = test system: Mus musculus; assay: In-vivo stabilization of SMN2 mRNA in SMA adult C/C allele mouse model assessed as increase in SMN protein levels in quadriceps at 10 mg/kg, po dosed once daily for 10 days relative to control; assay type: functional
[6] = test system: Mus musculus; assay: In-vivo stabilization of SMN2 mRNA in SMA adult C/C allele mouse model assessed as increase in SMN protein levels in brain at 10 mg/kg, po dosed once daily for 10 days relative to control; assay type: functional
[7] = test system: Mus musculus; assay: In-vivo stabilization of SMN2 mRNA in SMA neonatal delta7 mouse model assessed as increase in SMN protein levels in quadriceps at 10 mg/kg, ip dosed once daily starting from postnatal day 3 to postnatal day 9 relative to control; assay type: functional
[8] = test system: Mus musculus; assay: In-vivo stabilization of SMN2 mRNA in SMA adult C/C allele mouse model assessed as increase in SMN protein levels in brain at 1 mg/kg, po dosed once daily for 10 days relative to control; assay type: functional
[9] = Toxicity in po dosed cynomolgus monkey assessed phospholipidosis administered via gavage up to 39 weeks; assay type: organism-based, Macaca fascicularis; conditions: in vivo, 6552 h
[10] = test system: NIH3T3; assay: Phototoxicity in mouse 3T3 cells assessed as decrease in cell viability at 9 uM in presence of UV light by neutral red uptake assay; assay type: cell-based; conditions: nih3t3, 9 µM
[11] = AUC (0 to 24 hrs) in SMA neonatal delta7 mouse model at 0.1 mg/kg, ip dosed once daily starting from postnatal day 3 to postnatal day 9; assay type: ADME, organism-based; design: time < 24 hr, dose 0.1 mg/kg, route intraperitoneal; conditions: in vivo
[12] = Volume of distribution at steady state in cynomolgus monkey at 0.1 mg/kg, iv administered as single dose; assay type: ADME, organism-based, Macaca fascicularis; conditions: in vivo, read-out: Vdss
[13] = Chronic toxicity in retina of po dosed cynomolgus monkey assessed as excess vacuolation of inner nuclear layer after 39 weeks by histological analysis; assay type: organism-based, Macaca fascicularis; conditions: in vivo, 6552 h
[14] = Stabilization of human STRN3 mRNA splicing expressed in human SMA-derived fibroblasts at 121 to 605 nM by RT-qPCR analysis; assay type: ADME; conditions: 0.605 µM
[15] = Lipophilicity, log D of the compound at pH 7.4; assay type: physicochemical; conditions: buffer
[16] = Chronic toxicity in retina of po dosed cynomolgus monkey assessed as formation of microcystic spaces in the inner retinal layers after 39 weeks by OCT analysis; assay type: organism-based, Macaca fascicularis; conditions: in vivo, 6552 h

Cc1cn2nc(-c3cc(=O)n4cc(N5CCNC6(CC6)C5)ccc4n3)cc(C)c2n1
AUC at 24 h [1]: 9000 ng·h/mL
half-life [2]: 6.4 h
Activity [3]: 32%
Activity [4]: Non-Toxic
Activity [5]: 49%
Activity [6]: 100%
Activity [7]: 241%
Activity [8]: 0%
Activity [9]: Non-Toxic
Activity [10]: Non-Toxic
AUC at 24 h [11]: 2200 ng·h/mL
Vd [12]: 2 L/kg
Activity [13]: Toxic
Activity [14]: Non-Toxic
logD [15]: 2.5
Activity [16]: Toxic
